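Where inhibition never reached the appropriate level, the endpoint shown equals the highest concentration tested. Otherwise, values were interpolated linearly from a five-concentration, 48-hour dose response in 96-well plates. The concentration for 50% growth inhibition is given as GI50.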 The source made the active and inactive calls. Cut-off read from the data, not from the text of the source: active = GI50 up to about 1.1 µM and inactive = higher.

Data on eight molecules can be found in ChEMBL document CHEMBL1201862, “PubChem BioAssay data set” (2004).

Some test systems named below: 786-0; HCT-116; HCT-15; IGROV-1; KM-20L2; M14; NCI/ADR-RES; OVCAR-8; PC-3; RXF 393; SF-295; SF-539; SNB-19; SNB-75; U-251; UACC-257; UACC-62; Hs-578T; MCF7; T47D.
Assay in all cases: NCI anticancer screen, dose series, 48 h

In the case of `O=Cc1ccc(-c2ccc(-c3ccc(C=O)s3)o2)s1`, the GI50 with 786-0 is 23.8 µM (inactive); in the assay on HCT-116, 8.53 µM (inactive); in the assay with HCT-15, 61.5 µM; with IGROV-1, 3.27 µM (inactive); in the assay on KM-20L2 it was 31.3 µM (inactive); with M14 it was > 100 µM (inactive). For the same molecule, the GI50 was 61.5 µM (inactive) with NCI/ADR-RES; > 100 µM (inactive) in the assay on OVCAR-8; > 100 µM (inactive) in the assay on PC-3; 0.233 µM (active) in the assay with RXF 393; > 77.3 µM (inactive) in the assay on SF-295; > 82.4 µM (inactive) in the assay with SF-539. Also, the GI50 is > 88.1 µM (inactive) in the assay with SNB-19; 29.7 µM (inactive) with SNB-75; 1.34 µM (inactive) in the assay with U-251; 2.61 µM (inactive) in the assay on UACC-257; 0.108 µM (active) in the assay on UACC-62.
Regarding `CC1OC(=O)C2CC3CCCCC3C(/C=C/C3CCCC(C)N3C)C12` (stereo unspecified), the GI50 is > 100 µM (inactive) in the assay on 786-0; > 100 µM (inactive) in the assay on HCT-116; more than 100 µM in the assay with HCT-15; > 100 µM (inactive) with Hs-578T; > 100 µM (inactive) with IGROV-1; 79.8 µM (inactive) in the assay on KM-20L2. Besides, the GI50 with M14 was > 100 µM (inactive); with MCF7 it was 90.8 µM (inactive); with NCI/ADR-RES, > 100 µM (inactive); with OVCAR-8, > 100 µM (inactive); with PC-3 it was > 100 µM (inactive); in the assay on RXF 393 it was > 100 µM (inactive). In addition, the GI50 is 63.1 µM (inactive) in the assay on SF-295; > 100 µM (inactive) in the assay with SF-539; > 100 µM (inactive) in the assay with SNB-19; > 95.5 µM (inactive) in the assay with SNB-75; > 100 µM (inactive) in the assay with T47D; > 100 µM (inactive) with U-251. The GI50 with UACC-257 and in the assay with UACC-62 was > 100 µM (inactive) each time.
Consider `O=C1c2cc([N+](=O)[O-])cc3cc([N+](=O)[O-])cc(c23)C(=O)N1CCCNCCNCCCN1C(=O)c2cc([N+](=O)[O-])cc3cc([N+](=O)[O-])cc(c23)C1=O`, for which the GI50 in the assay on 786-0 was 0.0879 µM (active); in the assay with HCT-116 it was 0.0102 µM (active); in the assay on HCT-15 it was 0.117 µM; with Hs-578T, 0.106 µM (active); in the assay with IGROV-1, 0.0301 µM (active); with KM-20L2 it was 0.129 µM (active). Further, the GI50 with M14 is 0.384 µM (active); with MCF7, 0.0695 µM (active); in the assay on NCI/ADR-RES, 1.34 µM (inactive); in the assay with OVCAR-8, 0.0841 µM (active); in the assay with PC-3, 0.376 µM (active); in the assay with RXF 393 it was 0.0317 µM (active). In addition, the GI50 was 0.0462 µM (active) in the assay on SF-295; 0.0533 µM (active) with SF-539; 0.326 µM (active) in the assay with SNB-19; 0.308 µM (active) in the assay with SNB-75; 0.587 µM (active) in the assay on T47D; 0.0395 µM (active) in the assay on U-251. Moreover, the GI50 was 0.49 µM (active) with UACC-257 and 0.302 µM (active) with UACC-62.
With `CCCCCCCCCCCC[S+](C)C`, the GI50 in the assay with 786-0 was 1.69 µM (inactive); with HCT-116, 6.22 µM (inactive); with HCT-15, 18.5 µM; in the assay on IGROV-1, 2 µM (inactive); in the assay on KM-20L2, 5.11 µM (inactive); in the assay on M14 it was 5.14 µM (inactive). Also, the GI50 is 9.02 µM (inactive) with MCF7; > 44.1 µM (inactive) in the assay on NCI/ADR-RES; 4.67 µM (inactive) in the assay with OVCAR-8; 1.58 µM (inactive) in the assay on PC-3; 2.07 µM (inactive) in the assay on RXF 393; 5.87 µM (inactive) in the assay on SF-295. Also, the GI50 in the assay on SF-539 was 6.24 µM (inactive); in the assay with SNB-19, 6.59 µM (inactive); with SNB-75, 5.68 µM (inactive); in the assay on T47D it was 0.516 µM (active); in the assay on U-251 it was 5.25 µM (inactive); in the assay with UACC-257, 4.18 µM (inactive). In addition, the GI50 with UACC-62 is 6.4 µM (inactive).
As to `CC(=O)Nc1ccc(C2C(C(=O)Nc3ccccc3)=C(C)NC(C)=C2C(=O)Nc2ccccc2)cc1`, the GI50 with 786-0 is > 100 µM (inactive); with HCT-116, > 91 µM (inactive); in the assay on HCT-15, more than 64.1 µM; in the assay on IGROV-1, > 100 µM (inactive); in the assay on KM-20L2, > 100 µM (inactive); in the assay on M14 it was > 100 µM (inactive). The GI50 in the assay with OVCAR-8, with RXF 393, in the assay with SF-295, in the assay with SF-539, in the assay on SNB-19 and in the assay on SNB-75 was > 100 µM (inactive) in each case. The figures for the GI50 with U-251, with UACC-257 and in the assay with UACC-62 were > 100 µM (inactive), > 100 µM (inactive) and > 80.5 µM (inactive), respectively.
Take `CC1=CC(=O)C(C)(C2=NC(C)(C)CO2)c2ccccc21` (stereo unspecified): the GI50 in the assay with 786-0 was > 100 µM (inactive); in the assay with HCT-116, > 100 µM (inactive); in the assay with HCT-15, more than 100 µM; with IGROV-1, > 100 µM (inactive); in the assay on KM-20L2, > 100 µM (inactive); in the assay with M14, > 100 µM (inactive). Also, the GI50 in the assay on OVCAR-8, in the assay on RXF 393, with SF-295, in the assay with SF-539, with SNB-19 and with SNB-75 was > 100 µM (inactive) throughout. Moreover, the GI50 with U-251, in the assay with UACC-257 and in the assay with UACC-62 was > 100 µM (inactive) each time.
As for `O=C1C2C(C(=O)N1c1ccccc1)C1c3ccccc3C2C2C(=O)N(c3ccccc3)C(=O)C21` (stereo unspecified), the GI50 with 786-0 is 3.89 µM (inactive); in the assay with HCT-116, 3.12 µM (inactive); in the assay on HCT-15, 3.43 µM; with IGROV-1 it was > 100 µM (inactive); with KM-20L2 it was 18.2 µM (inactive); with M14 it was 2.85 µM (inactive). The GI50 is 7.08 µM (inactive) in the assay on OVCAR-8; 6.04 µM (inactive) with RXF 393; 3.48 µM (inactive) with SF-295; 3.56 µM (inactive) in the assay with SF-539; 6.27 µM (inactive) in the assay on SNB-19; 3.73 µM (inactive) in the assay on SNB-75. In addition, the results for the GI50 with U-251, with UACC-257 and in the assay on UACC-62 were 2.82 µM (inactive), > 100 µM (inactive) and 6.78 µM (inactive), respectively.
For `CC(C)(C)OC(=O)C1=C(O)C(C(=O)OC(C)(C)C)C23CCCCC12C(C(=O)OC(C)(C)C)C(O)=C3C(=O)OC(C)(C)C` (stereo unspecified), the GI50 with 786-0 was > 100 µM (inactive); with HCT-116, > 100 µM (inactive); in the assay on HCT-15 it was more than 100 µM; with IGROV-1, > 100 µM (inactive); in the assay with KM-20L2 it was > 100 µM (inactive); in the assay with M14 it was > 100 µM (inactive). The GI50 with OVCAR-8, in the assay on RXF 393, in the assay on SF-295, with SF-539, with SNB-19 and with SNB-75 was > 100 µM (inactive) in each case. Besides, the GI50 in the assay on U-251, in the assay with UACC-257 and in the assay with UACC-62 was > 100 µM (inactive) each time.
